These results are taken from patent EP0516186A2, “Nucleosides and nucleoside analogues, pharmaceutical composition and processes for the preparation of the compounds” (priority 1987, dated 1988).

Common to all, as to assay type: cell-based
In one data set the test system is HIV (HTLV-IIIB). The experiment in a line: Effect on HIV in H9 cells (frequency of HIV antigen containing cells, immunofluorescence). The conditions noted are these: Human immunodeficiency virus 1; H9 cells exposed to HIV (HTLV-IIIB), incubated 6 - 7 days; read-out: Concentration (µM) for 50 % inhibition (IC₅₀) of human immuno deficiency virus multiplication in cell culture. On the procedure: Test I. Effect of compounds of the formula I on HIV in H9 cells
Materials and methods: HIV infection of H9 cells
H9 cells, 10⁵ cells per well on a 24 well plate, suspended in 2 ml RPMI-medium containing 10 % fetal calf serum, 100 µg/ml penicillin, 10 µg/ml streptomycin sulfate and 2 µg/ml polybrene are exposed to HIV (HTLV-IIIB) and different concentrations of the test compounds. The plates are incubated at 37°C in 5 % CO₂ for 6 - 7 days. The contents in each well is then homogenized with a pipette and transferred to a centrifuge tube. After centrifugation for 10 min at 1500 rpm the supernatent is removed and the cell pellet is analyzed by fixing in methanol on glass plates. Human HIV positive serum diluted 1:80 or 1:160 is added and incubated for 30 min at 37°. The plate is then washed with phosphate-buffered saline (PBS) containing Ca²⁺ and Mg²⁺. Sheep antihuman conjugate (FITC) is added and after a new incubation the plate is again washed with PBS. Contrast staining is done with Evans blue and after drying the frequency of HIV antigen containing cells is determined in a microscope.

A short description of data set [1]: Cellular toxicity in F5000 cells (cell multiplication). The conditions noted are these: F5000 human embryo cells, number of cells after 48 hrs; 50 % inhibition of cell multiplication; read-out: TC₅₀(µM) F5000. The procedure: (§1) Test II. Cellular toxicity
(§2) F5000 cells, which are human embryo cells, 1x10⁵ cells per plate, are incubated in Eagle's minimal essential medium, supplemented with Earle's salts, non-essential amino acids, 10 % fetal calf serum, 10 mM hepes, 70 mg/l penicillin and 100 mg/l streptomycin, in absence or presence of test compounds. The number of cells per plate is determined after 48 hrs. Cells incubated in absence of test compounds underwent one cell division cycle. The results are given as TC₅₀, which is the concentration of a compound which gives 50 % inhibition of cell multiplication.

The nature of data set [2]: Cellular toxicity in H9 cells (cell multiplication). The note with it: human, number of cells after 48 hrs, 50 % inhibition of cell multiplication, read-out: TC₅₀(µM) H9. The procedure: as §1
H₉ cells, 2x10⁷ cells per plate, are incubated in RPMI-1640 medium containing 10 % fetal calf serum, 70 mg/l penicillin, 100 mg/l streptomycin and 10 mM hepes, in absence or precence of test compounds. The number of cells per plate is determined after 48 hrs. Cells incubated in absence of test compound then underwent two cell division cycles.
as §2

For the compound `CCc1cn([C@@H]2C[C@H](O)[C@@H](CO)O2)c(=O)[nH]c1=O` [VIP 289, 1-(2-deoxy-α-D-ribofuranosyl)-5-ethyluracil], the IC50 in the data set on HIV (HTLV-IIIB) worked out at 10 µM. Besides, the CC50 at 48 h in data set [1] was 1000 µM.
Regarding `CCCc1cn([C@@H]2C[C@H](F)[C@@H](CO)O2)c(=O)[nH]c1=O` [VSA 409, 1-(3-F-2,3-dideoxy-α-D-ribofuranosyl)-5-propyluracil], the IC50 in the data set on HIV (HTLV-IIIB) stood at 2.5 µM.
With `CCc1cn([C@@H]2C[C@H](F)[C@@H](CO)O2)c(=O)[nH]c1=O` [VSA 411, 1-(3-F-2,3-dideoxy-α-D-ribofuranosyl)-5-ethyluracil], in the data set on HIV (HTLV-IIIB), the IC50 is 0.1 µM. For the same compound, the results for the CC50 at 48 h in data set [2] and in data set [1] were 400 µM and 500 µM, respectively.
Turning to `Cc1cn([C@@H]2C[C@H](F)[C@@H](CO)O2)c(=O)[nH]c1=O` [VSA 419, 1-(3-F-2,3-dideoxy-α-D-ribofuranosyl)thymine], in data set [1], the CC50 at 48 h is 250 µM.
